US4764590A, “Des-19-leucine, 20-glutamine, 21-threonine-calcitonin” (Rorer Pharmaceutical Corporation, priority 1987, dated 1988)
Where a SMILES comes first, the peptide text is derived from it.

Experiments:
[1] = system: serum calcium concentration; assay: Biological assay of calcitonin analogs in vivo: reduction of serum calcium concentration, 2×2 parallel line assay; details: rats, subcutaneous injection, blood withdrawn 1 hour later, versus synthetic salmon calcitonin standard
Method: Biological Assay of Calcitonin Analogs in Vivo
The biological potency of des-19-leucine, 20-glutamine, 21-threonine-salmoncalcitonin was determined by comparing the reduction of serum calcium concentration which followed administration by graded doses of des-Leu^19, Gln^20, Thr^21 -SCT and synthetic salmon calcitonin standard. Rats were divided into four groups of seven animals, and each group was assigned at random to a dose of standard or test solution. Low and high doses were chosen from the linear portion of the dose-response curve. For the salmon calcitonin standard, the values were 0.7 and 2.1 ng. peptide/100 g. body weight (BW). This dose approximates 3 and 9 MU/100 g. BW. Peptides were given by subcutaneous injection (0.2 ml/100 g. BW) and blood was withdrawn 1 hour later for serum calcium determination. Sera are processed and analyzed within two hours of collection. […]. Results were analyzed by a 2×2 parallel line assay [Gaddum, J. H., J. Pharm. Pharmacol., 6, 345 (1953)]. The standard salmon calcitonin used was independently determined to contain greater than 4,000 IU/mg. des-Leu^19, Gln^20, Thr^21 -SCT assayed at 7100 IU/mg.

[2] = Monikawa et al., Experientia 32(9), 1104-1106 (1976); cited from earlier work
[3] = system: serum calcium concentration; details: standard used in the rat assay; cited from earlier work

Molecule | hypocalcemic potency [2] | further results
CC(C)C[C@H](NC(=O)[C@H](CCCCN)NC(=O)CNC(=O)[C@H](CC(C)C)NC(=O)[C@@H](NC(=O)[C@@H]1CSSC[C@H](N)C(=O)N[C@@H](CO)C(=O)N[C@@H](CC(N)=O)C(=O)N[C@@H](CC(C)C)C(=O)N[C@@H](CO)C(=O)N[C@@H]([C@@H](C)O)C(=O)N1)C(C)C)C(=O)N[C@@H](CO)C(=O)N[C@@H](CCC(N)=O)C(=O)N[C@@H](CCC(=O)O)C(=O)N[C@@H](CC(C)C)C(=O)N[C@@H](Cc1c[nH]cn1)C(=O)N[C@@H](CCCCN)C(=O)N[C@@H](Cc1ccc(O)cc1)C(=O)N1CCC[C@H]1C(=O)N[C@@H](CCCNC(=N)N)C(=O)N[C@H](C(=O)N[C@@H](CC(N)=O)C(=O)N[C@H](C(=O)NCC(=O)N[C@@H](CO)C(=O)NCC(=O)N[C@H](C(=O)N1CCC[C@H]1C(N)=O)[C@@H](C)O)[C@@H](C)O)[C@@H](C)O [des-Leu^19, Gln^20, Thr^21 -SCT, des-19-leucine, 20-glutamine, 21-threonine-salmon calcitonin] (HELM PEPTIDE1{C.S.N.L.S.T.C.V.L.G.K.L.S.Q.E.L.H.K.Y.P.R.T.N.T.G.S.G.T.P.[am]}$PEPTIDE1,PEPTIDE1,1:R3-7:R3$$$V2.0) | – | biological potency (reduction of serum calcium concentration) [1]: 7100 IU/mg
(1,7-alpha-L-amino-suberic acid) eel calcitonin | about 3400 IU/mg. | –
Salmon calcitonin [standard salmon calcitonin] | – | potency of the standard salmon calcitonin, independently determined [3]: greater than 4,000 IU/mg
eel calcitonin [synthetic eel calcitonin] | around 4300 IU/mg. | –
